Experimental data reported in ChEMBL document CHEMBL1130228, “Potent and selective 1,2,3-trisubstituted indole NPY Y-1 antagonists” (J Med Chem, 1997).

Tests used:
[1] = target: T1, Neuropeptide Y receptor type 1 (Homo sapiens, UniProt P25929); assay: Binding affinity for Neuropeptide Y receptor type 1 expressed in AV-12 cells; assay type: cell-based, AV12
T1 sequence (P25929 whole entry): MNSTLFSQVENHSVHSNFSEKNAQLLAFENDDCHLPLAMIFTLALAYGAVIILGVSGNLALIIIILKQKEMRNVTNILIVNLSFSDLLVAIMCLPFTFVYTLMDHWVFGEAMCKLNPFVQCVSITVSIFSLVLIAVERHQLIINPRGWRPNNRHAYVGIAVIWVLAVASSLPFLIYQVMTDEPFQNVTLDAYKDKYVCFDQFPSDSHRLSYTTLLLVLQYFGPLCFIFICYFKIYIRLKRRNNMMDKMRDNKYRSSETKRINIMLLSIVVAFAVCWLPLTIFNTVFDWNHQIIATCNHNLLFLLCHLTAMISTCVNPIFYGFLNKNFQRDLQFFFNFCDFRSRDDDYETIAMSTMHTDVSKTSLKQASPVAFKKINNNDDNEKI

[2] = target: T2, Neuropeptide Y receptor type 2 (Homo sapiens, UniProt P49146); assay: Affinity for human Neuropeptide Y receptor type 2
T2 sequence (P49146 whole entry): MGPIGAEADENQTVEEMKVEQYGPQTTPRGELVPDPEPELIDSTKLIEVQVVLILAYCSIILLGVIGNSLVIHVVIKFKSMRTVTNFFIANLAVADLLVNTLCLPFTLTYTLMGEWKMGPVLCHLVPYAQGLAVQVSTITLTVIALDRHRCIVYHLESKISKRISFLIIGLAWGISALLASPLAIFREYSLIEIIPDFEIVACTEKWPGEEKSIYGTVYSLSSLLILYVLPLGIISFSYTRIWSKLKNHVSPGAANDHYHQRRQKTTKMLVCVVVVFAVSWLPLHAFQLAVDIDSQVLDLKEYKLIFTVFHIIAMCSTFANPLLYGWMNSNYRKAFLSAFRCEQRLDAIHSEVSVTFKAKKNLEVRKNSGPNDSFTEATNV

[3] = target: T3, Neuropeptide Y receptor type 5 (Homo sapiens, UniProt Q15761); assay: Affinity for human Neuropeptide Y receptor type 5
T3 sequence (Q15761 whole entry): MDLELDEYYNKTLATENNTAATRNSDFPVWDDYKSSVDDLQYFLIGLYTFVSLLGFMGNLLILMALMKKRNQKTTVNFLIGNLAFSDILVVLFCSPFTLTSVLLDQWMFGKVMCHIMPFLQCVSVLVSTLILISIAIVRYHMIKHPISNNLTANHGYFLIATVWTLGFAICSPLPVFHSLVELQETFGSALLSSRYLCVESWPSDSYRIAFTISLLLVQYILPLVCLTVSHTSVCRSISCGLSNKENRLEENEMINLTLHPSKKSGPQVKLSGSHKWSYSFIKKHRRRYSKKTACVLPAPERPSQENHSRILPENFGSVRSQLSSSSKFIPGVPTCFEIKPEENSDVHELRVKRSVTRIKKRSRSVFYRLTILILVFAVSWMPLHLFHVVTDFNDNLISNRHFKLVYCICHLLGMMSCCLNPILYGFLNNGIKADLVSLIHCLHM

[4] = target: Neuropeptide Y receptor type 4 (Homo sapiens, UniProt P50391); assay: Affinity for human Neuropeptide Y receptor type 4
Sequence of Neuropeptide Y receptor type 4 (P50391 whole entry): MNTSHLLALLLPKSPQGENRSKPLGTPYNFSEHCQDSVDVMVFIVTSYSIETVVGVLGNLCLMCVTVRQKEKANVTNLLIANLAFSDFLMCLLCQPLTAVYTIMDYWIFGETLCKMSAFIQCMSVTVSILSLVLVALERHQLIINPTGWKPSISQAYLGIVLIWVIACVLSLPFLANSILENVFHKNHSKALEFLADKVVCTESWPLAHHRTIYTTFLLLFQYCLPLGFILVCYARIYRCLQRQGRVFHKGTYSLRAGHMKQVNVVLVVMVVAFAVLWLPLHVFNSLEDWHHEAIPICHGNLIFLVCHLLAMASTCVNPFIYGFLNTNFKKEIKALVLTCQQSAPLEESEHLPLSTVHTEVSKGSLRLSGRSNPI

[5] = target: T1, Neuropeptide Y receptor type 1; assay: Ability to reverse Neuropeptide Y receptor type 1-induced inhibition of forskolin-induced inhibition of forskolin-stimulated cAMP; assay type: functional
SK-N-MC = assay: Ability to reverse NPY-induced intracellular [Ca2+] mobilization in SK-N-MC cells; assay type: functional, cell-based, Homo sapiens
Mus musculus = assay: Ability to block increase in food consumption elicited by NPY (230 pmol, icv) into lateral ventricle of mice; assay type: functional

Structure (SMILES)	Ki [1] [µM]	Ki [2] [µM]	Ki [3] [µM]	Ki [4] [µM]	Ki [5] [µM]	Ki (SK-N-MC) [µM]	ED50 (Mus musculus) [µM]
Clc1ccc(OCc2c(CN3CCC(N4CCCCC4)CC3)c3ccccc3n2CCN2CCCCC2)cc1	0.098	> 10	> 10	> 10	–	–	–
Cn1c(COc2ccc(Cl)cc2)c(C(=O)C(=O)N2CCC(N3CCCCC3)CC2)c2ccccc21	0.44	> 10	> 10	> 10	–	–	–
Cn1c(COc2ccc(Cl)cc2)c(C(=O)CN2CCC(N3CCCCC3)CC2)c2ccccc21	0.026	> 10	> 10	> 10	–	–	–
Cn1c(COc2ccc(Cl)cc2)c(CN2CCC(N3CCCCC3)CC2)c2ccccc21	0.559	> 10	> 10	> 10	–	–	–
Cn1c(COc2ccc(Cl)cc2Cl)c(CN2CCCCC2)c2ccccc21	1.26	> 10	> 10	> 10	–	–	–
O=C(CN1CCC(N2CCCCC2)CC1)c1c(COc2ccc(Cl)cc2)n(CCC2CCNCC2)c2ccccc12	0.0019	> 10	> 10	> 10	–	–	–
Cn1c(COc2ccc(Cl)cc2)c(CN2CCCCC2)c2ccccc21	2.32	> 10	> 10	> 10	–	–	–
N=C(N)NCCC[C@@H](NC(=O)C(c1ccccc1)c1ccccc1)C(=O)NCc1ccc(O)cc1	–	> 10	> 10	> 10	–	–	–
Cn1c(COc2ccc(Cl)cc2)c(CCN2CCCCC2)c2ccccc21	2.88	> 10	> 10	> 10	–	–	–
O=C(CN1CCC(N2CCCCC2)CC1)c1c(COc2ccc(Cl)cc2)n(CCC[C@@H]2CCCNC2)c2ccccc12	0.00075	> 10	> 10	> 10	0.0018	0.0032	0.017
Cn1c(COc2ccc(Cl)cc2)c(CCN2CCC(N3CCCCC3)CC2)c2ccccc21	0.093	> 10	> 10	> 10	–	–	–
O=C(CN1CCC(N2CCCCC2)CC1)c1c(COc2ccc(Cl)cc2)n(CCC[C@H]2CCCNC2)c2ccccc12	0.0014	> 10	> 10	> 10	–	–	–
